Laboratory results taken from patent US4946838A, “Crystalline anhydrous aztreonam” (priority 1986, dated 1990).
“Also recorded” adds a separate entry of the source. Like-named read-outs stand apart in the source and are kept apart here.

Columns and labels:
[1] = Intrinsic Dissolution Rate; assay type: physicochemical; details: in words
[2] = Powder properties (density, surface area, flowability); assay type: physicochemical; details: in words
[3] = Crystallinity and morphology (microscopy, X-ray diffraction); assay type: physicochemical
[4] = Differential Scanning Calorimetry (DSC), peak temperatures; assay type: physicochemical
[5] = Hydration (water content) of crystalline forms; assay type: physicochemical; details: for Hydration: in words
[6] = Hygroscopicity (Equilibrium Moisture Content and rate); assay type: physicochemical; details: for Hygroscopicity: Rate: in words
[7] = compared with α-form or simple salts; powder for reconstitution

Row | Compound | Intrinsic Dissolution Rate [1] | Density [2] | Flowability [2] | Surface Area [2] | Morphology [3] | Crystallinity: X-ray diffraction [3] | Crystallinity: Microscopy [3] | Hydration, water content [5] | Hydration [5] | Hygroscopicity: EMC (Equilibrium Moisture Content) [6] | Hygroscopicity: Rate [6] | other results
1 | C[C@H]1[C@H](NC(=O)/C(=N\OC(C)(C)C(=O)O)c2csc(N)n2)C(=O)N1S(=O)(=O)O [α-Form, [3S-[3α(Z),4β]]-3-[[(2-amino-4-thiazolyl)[(1-carboxy-1-methylethoxy)imino]acetyl]amino]-4-methyl-2-oxo-1-azetidinesulfonic acid] | slow | low | poor | high | needles or rods | crystalline | birefringent | 7-14 % water | Hydrous | 0-14% | rapid | DSC, peak temperature, exotherm ([4]; decomp.): 200 °C; DSC, peak temperature, endotherm ([4]; dehydration): 107 °C
2 | C[C@H]1[C@H](NC(=O)/C(=N\OC(C)(C)C(=O)O)c2csc(N)n2)C(=O)N1S(=O)(=O)O [β-Form, [3S-[3α(Z),4β]]-3-[[(2-amino-4-thiazolyl)[(1-carboxy-1-methylethoxy)imino]acetyl]amino]-4-methyl-2-oxo-1-azetidinesulfonic acid] | fast | high | good | low | spiny fused spherulites | crystalline | birefringent | 0-1 % water | Anhydrous | 0-3% | slow | Density ([2]; listed as β-form): dense; DSC, peak temperature, exotherm ([4]; decomp, when crystallized from absolute ethanol): 228 °; DSC, peak temperature, exotherm ([4]; decomp, when crystallized from absolute methanol): 238 °; DSC, endotherm ([4]; in words): none; Hydration ([5]; listed as β-form): anhydrous; Shelf life [7]: greater than that of the α-form, or for that matter simple salts of the compound; Hygroscopicity [6]: nonhygroscopic; also recorded: substantially non-hygroscopic; Hygroscopicity ([6]; listed as crystalline, anhydrous form): substantially non-hygroscopic
